According to patent publication US20230416249A1, “N-[2-({4-[3-(ANILINO)-4-OXO-4,5,6,7-TETRAHYDRO-1H-PYRROLO[3,2-C]PYRIDIN-2-YL]PYRIDIN-3-YL)OXY)ETHYL]PROP-2-ENAMIDE DERIVATIVES AND SIMILAR COMPOUNDS AS EGFR INHIBITORS FOR THE TREATMENT OF CANCER” (Bayer Aktiengesellschaft, priority 2020, published 2023):
Values joined by “and” are separate entries in the source; they are usually repeats but may differ in a detail not shown here. Equal entries are not always repeated.

Assays:
[1] = target: Ba/F3-EGFR-L858R T790M cells (Homo sapiens, UniProt P00533, T790M/L858R, cells depend on it); test: Ba/F3 cell survival assay (Cell Titer-Glo), EGFR-L858R T790M; type: cell-based; details: 48 h, without IL-3, 10 ng/mL EGF; read-out: BA/F3 (L858R T790M) IC50
Chain of Ba/F3-EGFR-L858R T790M cells (P00533 whole entry T790M/L858R): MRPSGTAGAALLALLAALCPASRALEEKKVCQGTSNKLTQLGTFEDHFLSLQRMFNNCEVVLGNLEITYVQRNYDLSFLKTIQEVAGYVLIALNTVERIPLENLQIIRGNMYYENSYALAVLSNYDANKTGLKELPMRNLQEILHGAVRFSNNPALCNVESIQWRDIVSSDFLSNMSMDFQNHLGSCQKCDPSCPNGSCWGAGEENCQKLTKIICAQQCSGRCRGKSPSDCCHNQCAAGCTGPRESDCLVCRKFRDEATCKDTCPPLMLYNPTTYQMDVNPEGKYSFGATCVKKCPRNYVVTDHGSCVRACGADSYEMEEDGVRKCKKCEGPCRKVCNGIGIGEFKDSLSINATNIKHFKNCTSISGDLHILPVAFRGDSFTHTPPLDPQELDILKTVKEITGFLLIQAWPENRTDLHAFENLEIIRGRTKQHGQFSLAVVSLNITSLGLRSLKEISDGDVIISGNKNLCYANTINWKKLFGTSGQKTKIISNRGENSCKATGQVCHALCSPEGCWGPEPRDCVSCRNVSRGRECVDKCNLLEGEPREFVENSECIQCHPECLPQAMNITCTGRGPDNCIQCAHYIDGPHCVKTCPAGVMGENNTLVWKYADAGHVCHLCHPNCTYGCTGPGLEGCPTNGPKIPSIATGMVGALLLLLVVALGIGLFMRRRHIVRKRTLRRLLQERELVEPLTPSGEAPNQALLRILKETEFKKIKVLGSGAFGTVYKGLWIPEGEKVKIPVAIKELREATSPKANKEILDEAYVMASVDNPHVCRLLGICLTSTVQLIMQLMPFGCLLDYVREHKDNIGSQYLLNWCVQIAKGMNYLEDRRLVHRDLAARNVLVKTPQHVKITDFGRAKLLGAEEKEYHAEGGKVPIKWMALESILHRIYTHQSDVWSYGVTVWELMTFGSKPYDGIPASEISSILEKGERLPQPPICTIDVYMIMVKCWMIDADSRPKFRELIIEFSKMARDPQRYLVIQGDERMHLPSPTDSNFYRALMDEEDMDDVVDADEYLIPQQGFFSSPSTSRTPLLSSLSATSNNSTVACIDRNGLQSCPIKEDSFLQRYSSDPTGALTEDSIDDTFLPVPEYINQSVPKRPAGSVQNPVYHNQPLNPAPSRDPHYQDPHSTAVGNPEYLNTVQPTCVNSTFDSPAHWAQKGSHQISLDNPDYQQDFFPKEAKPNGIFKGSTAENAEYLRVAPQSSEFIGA
Protocol: (§1) 293T cells from ATCC were transfected with pBABEpuro expression constructs for EGFR-L858R, EGFR-E746_A750del, EGFR-L858R T790M, or EGFR-E746_A750del T790M, and pCL-Eco packaging vector using Fugene-6 transfection reagent from Promega. Plates were incubated at 37° C. for 48 h. Retrovirus was harvested by filtering the media supernatant through a 0.45 μm filter.
(§2) Ba/F3 cells purchased from DSMZ were grown in RPMI+10% FBS+10 ng/mL IL-3 and infected with filtered retroviral supernatant at a 1:2 dilution. Polybrene was added to a concentration of 8 μg/mL, plates were spun for 90 min, and incubated for 16 h at 37° C. 2 μg/mL puromycin was added to the infected cells 24 h after infection and cells were continually grown in the presence of puromycin and 10 ng/mL IL-3. Following stably expressing Ba/F3 cell lines were generated: Ba/F3-EGFR-L858R, Ba/F3-EGFR-E746_A750del, Ba/F3-EGFR-L858R T790M, or Ba/F3-EGFR-E746_A750del T790M.
(§3) For cell survival assays, Ba/F3 cells were grown to a density of 1-2 million cells per mL, spun down and resuspended in media without IL-3, and replated at a concentration 200,000-500,000 cells per mL. The cells ectopically expressing EGFR-L858R, EGFR-E746_A750del, EGFR-L858R T790M, or EGFR-E746_A750del T790M were plated with 10 ng/mL Millipore Culture grade EGF. The cells ectopically expressing pBABEpuro empty vector were plated with 10 ng/mL IL-3.
(§4) 2 days later, cells were plated in 50 μL in a 384 well plate at a concentration of 4000 cells per well for cells assayed in the absence of IL-3 and 2000 cells per well for cells assayed in the presence of IL-3. 100 nL of compound was added to each well using a 100 nL pin head, and plates were incubated at 37° C. for 48 h.
(§5) Cell viability was measured by adding 20 μL of Cell Titer-Glo Luminescent Cell Viability Reagent diluted 1:3 in PBS. Plates were sealed with Perkin Elmer Top-Seal, inverted several times to mix, and immediately centrifuged at 1000 rpm for 2 min. Plates were incubated in low light conditions for 8-10 min and luminescence was measured.

Ba/F3-EGFR-WT cells = Ba/F3-EGFR-WT cells (Homo sapiens, UniProt P00533); test: Ba/F3 cell survival assay (Cell Titer-Glo), WT EGFR; type: cell-based; details: 48 h, without IL-3, 10 ng/mL EGF; read-out: BA/F3 (wild type) IC50
Chain of Ba/F3-EGFR-WT cells (P00533 whole entry, stated change not applied): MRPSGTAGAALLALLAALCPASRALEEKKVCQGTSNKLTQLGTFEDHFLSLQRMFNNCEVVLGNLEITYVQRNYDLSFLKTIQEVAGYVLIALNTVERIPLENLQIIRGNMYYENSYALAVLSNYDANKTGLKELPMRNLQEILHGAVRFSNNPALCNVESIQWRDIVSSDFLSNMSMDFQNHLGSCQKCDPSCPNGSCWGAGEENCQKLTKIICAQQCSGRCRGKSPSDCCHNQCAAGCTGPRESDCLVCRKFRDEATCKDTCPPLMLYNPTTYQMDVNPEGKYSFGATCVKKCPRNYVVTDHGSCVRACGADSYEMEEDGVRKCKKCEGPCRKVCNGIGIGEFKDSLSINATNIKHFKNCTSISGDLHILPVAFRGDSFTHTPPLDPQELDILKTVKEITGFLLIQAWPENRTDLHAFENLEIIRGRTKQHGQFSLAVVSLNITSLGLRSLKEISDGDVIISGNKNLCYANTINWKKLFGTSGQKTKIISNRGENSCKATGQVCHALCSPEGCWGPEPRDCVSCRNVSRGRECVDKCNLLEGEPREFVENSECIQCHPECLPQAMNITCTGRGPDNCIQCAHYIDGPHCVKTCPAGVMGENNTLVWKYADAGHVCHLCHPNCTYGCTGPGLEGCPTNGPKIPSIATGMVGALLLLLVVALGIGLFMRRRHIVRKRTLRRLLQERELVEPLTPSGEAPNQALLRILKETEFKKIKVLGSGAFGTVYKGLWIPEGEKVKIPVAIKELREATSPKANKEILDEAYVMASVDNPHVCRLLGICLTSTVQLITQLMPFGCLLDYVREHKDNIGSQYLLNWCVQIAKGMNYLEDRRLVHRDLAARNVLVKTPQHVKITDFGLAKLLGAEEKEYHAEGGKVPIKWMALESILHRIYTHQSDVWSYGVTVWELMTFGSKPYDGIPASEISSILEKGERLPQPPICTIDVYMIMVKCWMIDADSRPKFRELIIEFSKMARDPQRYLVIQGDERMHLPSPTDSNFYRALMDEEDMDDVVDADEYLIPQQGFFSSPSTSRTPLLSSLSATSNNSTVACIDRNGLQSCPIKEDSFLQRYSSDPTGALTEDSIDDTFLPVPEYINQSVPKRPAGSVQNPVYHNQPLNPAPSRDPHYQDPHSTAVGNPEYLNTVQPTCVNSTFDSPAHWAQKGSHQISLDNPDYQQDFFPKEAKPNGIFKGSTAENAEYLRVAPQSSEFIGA
Protocol: as §1, with “WT EGFR” for “EGFR-L858R, EGFR-E746_A750del, EGFR-L858R T790M,”, “EGFR-insSVD, or EGFR-insSVD” for “EGFR-E746_A750del”
as §2, with “Ba/F3-EGFR-WT, Ba/F3-EGFR-insSVD, Ba/F3-EGFR-insSVD” for “Ba/F3-EGFR-L858R, Ba/F3-EGFR-E746_A750del, Ba/F3-EGFR-L858R”, “(Ba/F3—vector-control).” for “or Ba/F3-EGFR-E746_A750del T790M.”
as §3, with “WT EGFR, EGFR-insSVD,” for “EGFR-L858R, EGFR-E746_A750del, EGFR-L858R T790M,”, “EGFR-insSVD” for “EGFR-E746_A750del”
as §4, §5

[2] = target: Ba/F3-EGFR-E746_A750del T790M cells (Homo sapiens, UniProt P00533, DEL746-750/T790M, cells depend on it); test: Ba/F3 cell survival assay (Cell Titer-Glo), EGFR-E746_A750del T790M; type: cell-based; details: 48 h, without IL-3, 10 ng/mL EGF; read-out: BA/F3 (E746_A750del T790M) IC50
Chain of Ba/F3-EGFR-E746_A750del T790M cells (P00533 with tags, fused parts or gaps DEL746-750/T790M): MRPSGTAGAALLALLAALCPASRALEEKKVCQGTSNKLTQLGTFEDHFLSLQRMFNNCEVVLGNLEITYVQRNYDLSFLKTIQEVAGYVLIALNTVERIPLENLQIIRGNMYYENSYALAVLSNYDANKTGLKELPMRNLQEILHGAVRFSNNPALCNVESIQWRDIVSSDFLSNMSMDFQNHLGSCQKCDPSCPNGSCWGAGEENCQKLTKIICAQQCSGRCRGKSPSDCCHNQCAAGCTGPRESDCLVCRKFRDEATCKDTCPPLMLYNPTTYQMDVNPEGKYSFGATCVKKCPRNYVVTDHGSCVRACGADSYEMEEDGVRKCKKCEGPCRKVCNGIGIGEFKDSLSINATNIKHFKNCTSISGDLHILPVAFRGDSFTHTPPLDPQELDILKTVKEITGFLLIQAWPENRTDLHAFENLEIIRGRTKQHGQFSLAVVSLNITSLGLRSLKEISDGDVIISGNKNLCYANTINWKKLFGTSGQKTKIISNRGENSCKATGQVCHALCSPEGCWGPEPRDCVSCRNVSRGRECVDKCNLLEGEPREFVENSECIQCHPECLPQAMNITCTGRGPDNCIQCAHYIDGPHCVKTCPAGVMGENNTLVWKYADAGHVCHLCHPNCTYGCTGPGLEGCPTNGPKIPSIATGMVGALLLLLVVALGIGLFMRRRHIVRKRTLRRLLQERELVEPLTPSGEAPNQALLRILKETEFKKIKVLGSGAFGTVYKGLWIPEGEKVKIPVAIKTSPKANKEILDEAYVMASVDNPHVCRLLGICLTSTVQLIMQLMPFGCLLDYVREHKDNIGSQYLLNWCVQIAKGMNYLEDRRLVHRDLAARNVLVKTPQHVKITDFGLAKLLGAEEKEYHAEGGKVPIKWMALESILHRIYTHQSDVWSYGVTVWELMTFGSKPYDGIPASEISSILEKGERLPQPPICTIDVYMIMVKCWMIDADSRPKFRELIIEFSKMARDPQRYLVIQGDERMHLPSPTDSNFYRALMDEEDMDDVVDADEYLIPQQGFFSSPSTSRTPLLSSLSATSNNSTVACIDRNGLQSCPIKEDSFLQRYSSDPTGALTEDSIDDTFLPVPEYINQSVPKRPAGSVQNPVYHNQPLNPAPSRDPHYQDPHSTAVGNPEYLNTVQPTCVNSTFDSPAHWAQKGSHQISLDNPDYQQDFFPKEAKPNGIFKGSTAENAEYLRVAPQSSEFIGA
Protocol: as §1, §2, §3, §4, §5

Ba/F3-EGFR-insSVD cells = Ba/F3-EGFR-insSVD cells (Homo sapiens, UniProt P00533, DUP768-770, cells depend on it); test: Ba/F3 cell survival assay (Cell Titer-Glo), EGFR-insSVD; type: cell-based; details: 48 h, without IL-3, 10 ng/mL EGF; read-out: BA/F3 (insSVD) IC50
Chain of Ba/F3-EGFR-insSVD cells (P00533 with tags, fused parts or gaps DUP768-770): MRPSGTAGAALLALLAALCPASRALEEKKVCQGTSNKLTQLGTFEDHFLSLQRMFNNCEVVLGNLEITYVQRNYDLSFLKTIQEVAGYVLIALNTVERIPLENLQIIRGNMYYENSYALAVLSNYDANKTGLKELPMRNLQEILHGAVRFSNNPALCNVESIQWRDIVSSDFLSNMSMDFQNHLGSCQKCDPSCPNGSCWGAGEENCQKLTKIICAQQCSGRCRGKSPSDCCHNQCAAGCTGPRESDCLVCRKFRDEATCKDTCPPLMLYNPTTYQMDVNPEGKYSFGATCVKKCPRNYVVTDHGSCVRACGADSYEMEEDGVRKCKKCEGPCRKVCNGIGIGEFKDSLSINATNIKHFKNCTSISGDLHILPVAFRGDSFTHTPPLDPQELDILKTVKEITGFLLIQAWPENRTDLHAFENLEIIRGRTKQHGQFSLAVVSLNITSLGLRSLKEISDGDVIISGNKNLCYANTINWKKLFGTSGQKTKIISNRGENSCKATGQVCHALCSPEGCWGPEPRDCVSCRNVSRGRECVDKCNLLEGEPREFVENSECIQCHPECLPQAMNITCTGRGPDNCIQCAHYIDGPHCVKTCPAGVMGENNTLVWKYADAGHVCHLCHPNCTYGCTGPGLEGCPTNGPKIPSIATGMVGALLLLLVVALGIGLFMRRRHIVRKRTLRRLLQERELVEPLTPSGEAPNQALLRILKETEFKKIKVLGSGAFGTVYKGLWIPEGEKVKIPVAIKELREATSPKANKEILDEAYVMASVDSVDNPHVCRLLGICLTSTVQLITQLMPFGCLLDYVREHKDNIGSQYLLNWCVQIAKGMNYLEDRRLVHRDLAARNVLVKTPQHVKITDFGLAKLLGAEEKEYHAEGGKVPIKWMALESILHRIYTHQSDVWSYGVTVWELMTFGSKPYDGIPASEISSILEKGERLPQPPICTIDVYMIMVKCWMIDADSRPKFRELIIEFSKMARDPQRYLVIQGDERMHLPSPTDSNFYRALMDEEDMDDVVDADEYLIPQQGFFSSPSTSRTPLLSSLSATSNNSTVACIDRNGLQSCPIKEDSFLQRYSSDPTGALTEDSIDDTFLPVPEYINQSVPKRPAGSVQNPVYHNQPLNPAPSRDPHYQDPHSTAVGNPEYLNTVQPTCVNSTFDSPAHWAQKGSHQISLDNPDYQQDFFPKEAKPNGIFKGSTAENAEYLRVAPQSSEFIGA
Protocol: as §1, with “WT EGFR” for “EGFR-L858R, EGFR-E746_A750del, EGFR-L858R T790M,”, “EGFR-insSVD, or EGFR-insSVD” for “EGFR-E746_A750del”
as §2, with “Ba/F3-EGFR-WT, Ba/F3-EGFR-insSVD, Ba/F3-EGFR-insSVD” for “Ba/F3-EGFR-L858R, Ba/F3-EGFR-E746_A750del, Ba/F3-EGFR-L858R”, “(Ba/F3—vector-control).” for “or Ba/F3-EGFR-E746_A750del T790M.”
as §3, with “WT EGFR, EGFR-insSVD,” for “EGFR-L858R, EGFR-E746_A750del, EGFR-L858R T790M,”, “EGFR-insSVD” for “EGFR-E746_A750del”
as §4, §5

[3] = target: T1, mutEGFR (D770_N771insSVD) (Homo sapiens, UniProt P00533, DUP768-770); test: Exon20-Mutant-EGFR(D770_N771insSVD) kinase assay (TR-FRET); type: biochemical; details: GST-EGFR ins SVD, 2 mM ATP, 15 min pre-incubation
T1 construct: GST-EGFR #3 (SVD between D770 and N771); made in house; host or cells: Sf9 insect cells (baculovirus)
Text: Inhibitory activity of compounds of the present invention against an Epidermal Growth Factor Receptor (EGFR) with an insertion of the amino acids sequence SVD between D770 and N771 was quantified employing the TR-FRET based kinase activity assay as described in the following paragraphs.
A recombinant fusion protein of N-terminal Glutathion-S-Transferase (GST) and a fragment of human EGFR variant (amino acids R669 to A1210 with insertion of the amino acids sequence SVD between D770 and N771 (“EGFR ins SVD”), expressed in Sf9 insect cells and purified via affinity chromatography using Glutathion Sepharose as described above, was used as a kinase. As substrate for the kinase reaction the biotinylated peptide biotin-Ahx-AEEEEYFELVAKKK (SEQ ID NO: 6) (C-terminus in amide form) was used which can be purchased e.g. form the company Biosynthan GmbH (Berlin-Buch, Germany).
For the assay 50 nl of a 100-fold concentrated solution of the test compound in DMSO was pipetted into either a black low volume 384 well microtiter plate or a black 1536 well microtiter plate (both Greiner Bio-One, Frickenhausen, Germany), 2 μl of a solution of EGFR in aqueous assay buffer [50 mM Hepes pH 7.0, 10 mM MgCl2, 1 mM dithiothreitol, 0.5 mM EGTA, 0.3 mM activated sodium ortho-vanadate, 0.005% (w/v) bovine serum albumin, 0.005% (v/v) Tween-20] were added and the mixture was incubated for 15 min at 22° C. to allow pre binding of the test compounds to the enzyme before the start of the kinase reaction. Then the kinase reaction was started by the addition of 3 μL of a solution of adenosine tri phosphate (ATP, 3.33 mM=>final conc. in the 5 μL assay volume is 2 mM) and substrate (1.67 μM=>final conc. in the 5 μL assay volume is 1 μM) in assay buffer and the resulting mixture was incubated for a reaction time of 30 min at 22° C. The concentration of EGFR was adjusted depending of the activity of the enzyme lot and was chosen appropriate to have the assay in the linear range, typical concentration was 15 pg/μl. The reaction was stopped by the addition of 3 μl of a solution of HTRF detection reagents (83.3 nM streptavidine-XL665 [Cisbio Bioassays, Codolet, France] and 1.67 nM PT66-Tb-Cryptate, a terbium-cryptate labelled anti-phospho-tyrosine antibody from Cisbio Bioassays [instead of the PT66 Tb cryptate PT66 Eu Chelate from Perkin Elmer can also be used]) in an aqueous EDTA-solution (133.3 mM EDTA, 0.2% (w/v) bovine serum albumin in 50 mM HEPES pH 7.5).
The resulting mixture was incubated 1 h at 22° C. to allow the binding of the biotinylated phosphorylated peptide to the streptavidine-XL665 and the PT66-Tb-Cryptate. Subsequently the amount of phosphorylated substrate was evaluated by measurement of the resonance energy transfer from the PT66-Tb-Cryptate to the streptavidine-XL665. Therefore, the fluorescence emissions at 620 nm and 665 nm after excitation at 337 nm were measured in a HTRF reader, e.g. a Pherastar (BMG Labtechnologies, Offenburg, Germany) or a Viewlux (Perkin-Elmer). The ratio of the emissions at 665 nm and at […] was taken as the measure for the amount of phosphorylated substrate. The data were normalised (enzyme reaction without inhibitor=0% inhibition, all other assay components but no enzyme=100% inhibition).

| Structure (SMILES) | GI50 [1] | GI50 (Ba/F3-EGFR-WT cells) [nM] | GI50 [2] [nM] | GI50 (Ba/F3-EGFR-insSVD cells) [nM] | IC50 [3] [nM] |
| --- | --- | --- | --- | --- | --- |
| C=CC(=O)NCCOc1cnccc1-c1[nH]c2c(c1Nc1cccc(Cl)c1OC)C(=O)NCC2 [Example 1, N-[2-({4-[3-(3-chloro-2-methoxyanilino)-4-oxo-4,5,6,7-tetrahydro-1H-pyrrolo[3,2-c]pyridin-2-yl]pyridin-3-yl}oxy)ethyl]prop-2-enamide] | > 1000 nM | 3030 | > 1000 | 376 | 0.155 |
| C=CC(=O)NCCOc1cnccc1-c1[nH]c2c(c1Nc1cccc(F)c1C)C(=O)NCC2 [Example 2, N-[2-({4-[3-(3-fluoro-2-methylanilino)-4-oxo-4,5,6,7-tetrahydro-1H-pyrrolo[3,2-c]pyridin-2-yl]pyridin-3-yl}oxy)ethyl]prop-2-enamide] | 215 nM | 907 | 25.2 | 57.9 | 0.386 |
| C=CC(=O)NCCOc1cnccc1-c1[nH]c2c(c1Nc1cccc(Cl)c1C)C(=O)NCC2 [Example 3, N-[2-({4-[3-(3-chloro-2-methylanilino)-4-oxo-4,5,6,7-tetrahydro-1H-pyrrolo[3,2-c]pyridin-2-yl]pyridin-3-yl}oxy)ethyl]prop-2-enamide] | 201 nM | 566 | 32.6 | 40.2 | 0.265 |
| C=CC(=O)NCCCOc1cnccc1-c1[nH]c2c(c1Nc1cccc(Cl)c1OC)C(=O)NCC2 [Example 4, N-[3-({4-[3-(3-chloro-2-methoxyanilino)-4-oxo-4,5,6,7-tetrahydro-1H-pyrrolo[3,2-c]pyridin-2-yl]pyridin-3-yl}oxy)propyl]prop-2-enamide] | > 1000 nM | 4420 | > 1000 | 519 | 0.305 |
| C=CC(=O)N(C)CCOc1cnccc1-c1[nH]c2c(c1Nc1cccc(Cl)c1OC)C(=O)NCC2 [Example 5, N-[2-({4-[3-(3-chloro-2-methoxyanilino)-4-oxo-4,5,6,7-tetrahydro-1H-pyrrolo[3,2-c]pyridin-2-yl]pyridin-3-yl}oxy)ethyl]-N-methylprop-2-enamide] | 12.9 nM | 68 | 3.39 | 5.77 | 0.231 |
| C=CC(=O)N(C)CCOc1cnccc1-c1[nH]c2c(c1Nc1cccc(F)c1OC)C(=O)NCC2 [Example 6, N-[2-({4-[3-(3-fluoro-2-methoxyanilino)-4-oxo-4,5,6,7-tetrahydro-1H-pyrrolo[3,2-c]pyridin-2-yl]pyridin-3-yl}oxy)ethyl]-N-methylprop-2-enamide] | 26.4 nM | 109 | 4.96 | 8.94 | 0.171 |
| C=CC(=O)N(C)CCOc1cnccc1-c1[nH]c2c(c1Nc1ccc(F)cc1)C(=O)NCC2 [Example 7, N-[2-({4-[3-(4-fluoroanilino)-4-oxo-4,5,6,7-tetrahydro-1H-pyrrolo[3,2-c]pyridin-2-yl]pyridin-3-yl}oxy)ethyl]-N-methylprop-2-enamide] | 274 nM | 366 | 21.9 | 146 | 1.62 |
| COc1c(F)cccc1Nc1c(-c2ccncc2OCCN(C)C(=O)/C=C/CN(C)C)[nH]c2c1C(=O)NCC2 [Example 8, (2E)-4-(dimethylamino)-N-[2-({4-[3-(3-fluoro-2-methoxyanilino)-4-oxo-4,5,6,7-tetrahydro-1H-pyrrolo[3,2-c]pyridin-2-yl]pyridin-3-yl}oxy)ethyl]-N-methylbut-2-enamide] | > 1000 nM | 4700 | 370 | 240 | 0.554 |
| COc1c(Cl)cccc1Nc1c(-c2ccncc2OCCN(C)C(=O)/C=C/CN(C)C)[nH]c2c1C(=O)NCC2 [Example 9, (2E)-N-[2-({4-[3-(3-chloro-2-methoxyanilino)-4-oxo-4,5,6,7-tetrahydro-1H-pyrrolo[3,2-c]pyridin-2-yl]pyridin-3-yl}oxy)ethyl]-4-(dimethylamino)-N-methylbut-2-enamide] | 731 nM and > 1000 nM | 4520 | 183 | 263 | 2.48 |
| C=CC(=O)N1CCC[C@H]1COc1cnccc1-c1[nH]c2c(c1Nc1cccc(Cl)c1OC)C(=O)NCC2 [Example 13, 3-(3-chloro-2-methoxyanilino)-2-(3-{[(2S)-1-(prop-2-enoyl)pyrrolidin-2-yl]methoxy}pyridin-4-yl)-1,5,6,7-tetrahydro-4H-pyrrolo[3,2-c]pyridin-4-one] | – | 51.2 | – | 6.69 | 0.206 |
